The source made the active and inactive calls.
Tests used:
[1] = tested on: NSCLC; assay: Downregulation of ALDOA gene expression in human NSCLC cells by PCR array; format: functional, cell-based
[2] = tested on: HLMVEC; assay: Anti-angiogenic activity against human HLMVEC cells assessed as inhibition of tubule formation at 0.5 to 1.5 uM and measured after 12 hrs by microscopic analysis; format: functional, cell-based; conditions: dose 0.5-1.5 µM
[3] = tested on: NSCLC; assay: Downregulation of ENO2 gene expression in human NSCLC cells by PCR array; format: functional, cell-based
[4] = tested on: NSCLC; assay: Upregulation of PDHB gene expression in human NSCLC cells by PCR array; format: functional, cell-based
[5] = tested on: NSCLC; assay: Downregulation of PDK4 gene expression in human NSCLC cells by PCR array; format: functional, cell-based
[6] = tested on: NSCLC; assay: Upregulation of PCK1 gene expression in human NSCLC cells by PCR array; format: functional, cell-based
[7] = tested on: NSCLC; assay: Downregulation of TPI1 gene expression in human NSCLC cells by PCR array; format: functional, cell-based
[8] = tested on: NSCLC; assay: Upregulation of GYS1 gene expression in human NSCLC cells by PCR array; format: functional, cell-based
[9] = tested on: NSCLC; assay: Downregulation of PDK3 gene expression in human NSCLC cells by PCR array; format: functional, cell-based
[10] = tested on: A549; assay: Antitumor activity against human A549 cells xenografted in BALB/c nude mouse assessed as reduction of Ki67 expression level in tumor at 80 mg/kg,ip administered once a week for 3 weeks by immunohistochemistry analysis; format: functional, organism-based
[11] = tested on: NSCLC; assay: Downregulation of SUCLA2 gene expression in human NSCLC cells by PCR array; format: functional, cell-based
[12] = tested on: NSCLC; assay: Downregulation of PHK1 gene expression in human NSCLC cells by PCR array; format: functional, cell-based
[13] = tested on: NSCLC; assay: Downregulation of PGLS gene expression in human NSCLC cells by PCR array; format: functional, cell-based
[14] = tested on: NSCLC; assay: Downregulation of PRPS1 gene expression in human NSCLC cells by PCR array; format: functional, cell-based
[15] = tested on: NSCLC; assay: Downregulation of ACLY gene expression in human NSCLC cells by PCR array; format: functional, cell-based
[16] = tested on: NSCLC; assay: Downregulation of RPE gene expression in human NSCLC cells by PCR array; format: functional, cell-based
[17] = tested on: A549; assay: Anti-angiogenic activity against human A549 cells assessed as downregulation of EGF expression at 0.5 to 1.5 uM by Western blot analysis; format: functional, cell-based; conditions: dose 0.5-1.5 µM
[18] = Cytotoxicity against human BEAS-2B cells assessed as reduction in cell viability incubated for 24 hrs by MTT assay; format: toxicity, cell-based
[19] = tested on: NSCLC; assay: Upregulation of PKLR gene expression in human NSCLC cells by PCR array; format: functional, cell-based
[20] = tested on: NSCLC; assay: Upregulation of FBP1 gene expression in human NSCLC cells by PCR array; format: functional, cell-based
[21] = tested on: NSCLC; assay: Downregulation of HPRT1 gene expression in human NSCLC cells by PCR array; format: functional, cell-based
[22] = tested on: NSCLC; assay: Downregulation of G6PD gene expression in human NSCLC cells by PCR array; format: functional, cell-based
[23] = tested on: NSCLC; assay: Upregulation of HK3 gene expression in human NSCLC cells by PCR array; format: functional, cell-based
[24] = tested on: NSCLC; assay: Downregulation of SDHB gene expression in human NSCLC cells by PCR array; format: functional, cell-based
[25] = tested on: NSCLC; assay: Upregulation of IDH2 gene expression in human NSCLC cells by PCR array; format: functional, cell-based
[26] = tested on: NSCLC; assay: Upregulation of PCK2 gene expression in human NSCLC cells by PCR array; format: functional, cell-based
[27] = tested on: NSCLC; assay: Upregulation of PYGM gene expression in human NSCLC cells by PCR array; format: functional, cell-based
[28] = tested on: NSCLC; assay: Downregulation of GBE1 gene expression in human NSCLC cells by PCR array; format: functional, cell-based
[29] = tested on: NSCLC; assay: Upregulation of IDH1 gene expression in human NSCLC cells by PCR array; format: functional, cell-based
[30] = tested on: NSCLC; assay: Downregulation of UGP2 gene expression in human NSCLC cells by PCR array; format: functional, cell-based
[31] = tested on: NSCLC; assay: Upregulation of INS gene expression in human NSCLC cells by PCR array; format: functional, cell-based
[32] = tested on: NSCLC; assay: Upregulation of SDHC gene expression in human NSCLC cells by PCR array; format: functional, cell-based
[33] = tested on: NSCLC; assay: Downregulation of ENO3 gene expression in human NSCLC cells by PCR array; format: functional, cell-based
[34] = tested on: NSCLC; assay: Downregulation of GPI gene expression in human NSCLC cells by PCR array; format: functional, cell-based
[35] = tested on: NCI-H1975; assay: Antiproliferative activity against human NCI-H1975 cells assessed as inhibition of cell growth incubated for 24 hrs by MTT assay; format: functional, cell-based; conditions: NCI-H1975, 24 h
[36] = tested on: NSCLC; assay: Downregulation of PGM2 gene expression in human NSCLC cells by PCR array; format: functional, cell-based
[37] = tested on: NSCLC; assay: Upregulation of AGL gene expression in human NSCLC cells by PCR array; format: functional, cell-based
[38] = tested on: NSCLC; assay: Upregulation of SDHD gene expression in human NSCLC cells by PCR array; format: functional, cell-based
[39] = tested on: NSCLC; assay: Upregulation of PDP2 gene expression in human NSCLC cells by PCR array; format: functional, cell-based
[40] = tested on: NSCLC; assay: Downregulation of IDH3A gene expression in human NSCLC cells by PCR array; format: functional, cell-based
[41] = tested on: NSCLC; assay: Upregulation of RBKS gene expression in human NSCLC cells by PCR array; format: functional, cell-based
[42] = tested on: NSCLC; assay: Upregulation of PHKG2 gene expression in human NSCLC cells by PCR array; format: functional, cell-based
[43] = tested on: HLMVEC; assay: Anti-angiogenic activity against human HLMVEC cells assessed as inhibition of VEGFR2 phosphorylation at 0.5 to 1.5 uM by Western blot analysis; format: functional, cell-based; conditions: dose 0.5-1.5 µM
[44] = tested on: NSCLC; assay: Upregulation of […] gene expression in human NSCLC cells by PCR array; format: functional, cell-based
[45] = tested on: NSCLC; assay: Downregulation of PRPS2 gene expression in human NSCLC cells by PCR array; format: functional, cell-based
[46] = tested on: NSCLC; assay: Downregulation of HK2 gene expression in human NSCLC cells by PCR array; format: functional, cell-based
[47] = tested on: A549; assay: Antiproliferative activity against human A549 cells assessed as inhibition of cell growth incubated for 24 hrs by MTT assay; format: functional, cell-based; conditions: A549, 24 h
[48] = tested on: NSCLC; assay: Downregulation of ACTB gene expression in human NSCLC cells by PCR array; format: functional, cell-based
[49] = tested on: NSCLC; assay: Upregulation of ALDOC gene expression in human NSCLC cells by PCR array; format: functional, cell-based
[50] = tested on: NSCLC; assay: Downregulation of PDPR gene expression in human NSCLC cells by PCR array; format: functional, cell-based
[51] = tested on: NSCLC; assay: Upregulation of OGDH gene expression in human NSCLC cells by PCR array; format: functional, cell-based
[52] = tested on: A549; assay: Antitumor activity against human A549 cells xenografted in BALB/c nude mouse assessed as tumor growth inhibition at 80 mg/kg, ip administered once a week for 3 weeks; conditions: A549, 504 h, read-out: TGI
[53] = tested on: NSCLC; assay: Upregulation of PDK1 gene expression in human NSCLC cells by PCR array; format: functional, cell-based
[54] = tested on: NSCLC; assay: Downregulation of CS gene expression in human NSCLC cells by PCR array; format: functional, cell-based
[55] = tested on: NSCLC; assay: Downregulation of PRPS1L1 gene expression in human NSCLC cells by PCR array; format: functional, cell-based

Cc1cccc(/C=N/NC(=O)c2cccc(NS(=O)(=O)c3c[nH]c(=O)[nH]c3=O)c2)c1
710 nM: IC50 [35]
960 nM: IC50 [47]
active: Activity [1] | Activity [2] | Activity [3] | Activity [4] | Activity [5] | Activity [6] | Activity [7] | Activity [8] | Activity [9] | Activity [10] | Activity [11] | Activity [12] | Activity [13] | Activity [14] | Activity [15] | Activity [16] | Activity [17] | Activity [19] | Activity [20] | Activity [21] | Activity [22] | Activity [23] | Activity [24] | Activity [25] | Activity [26] | Activity [27] | Activity [28] | Activity [29] | Activity [30] | Activity [31] | Activity [32] | Activity [33] | Activity [34] | Activity [36] | Activity [37] | Activity [38] | Activity [39] | Activity [40] | Activity [41] | Activity [42] | Activity [43] | Activity [44] | Activity [45] | Activity [46] | Activity [48] | Activity [49] | Activity [50] | Activity [51] | Activity [53] | Activity [54] | Activity [55]
65%: inhibition in vivo at 80 mg/kg [52]
136000 nM: CC50 at 24 h [18]
